What is called Cmax is the highest concentration seen after dosing. The term clearance denotes the volume of plasma or blood freed of the substance per unit of time. One may read the half-life as the time needed for the level to fall by half in the phase considered.

Here are results for one compound from patent publication US11090292B2, “Compositions and methods of use of an inappetance-controlling compound” (Aratana Therapeutics, Inc., priority 2012, dated 2021).

The subject of one data set is GH. As to the kind of experiment: Example 4: serum GH concentration. The note with it: once-daily or twice-daily 3 mg/kg, approximately 0.5 h, days 1, 4, 7. In kind it is in vivo, Beagle dogs. The method, then:
(§1) A controlled, seven-day study was performed to assess the impact of different capromorelin-dosing regimens on the production of IGF-1, GH, and cortisol. The different capromorelin-dosing regimens were also assessed for the impact on food intake and changes in body mass.
(§2) […] were divided into one of three treatment groups, with one negative control group and two active treatment groups. Each of the three treatment groups included three males and three females. The first group received a placebo formulation (i.e., deionized water) twice per day, via oral gavage. The second group received a once-daily dose of the capromorelin composition at a concentration of 3 mg/kg, via oral gavage. The third group received a twice-daily dose of the capromorelin composition at a concentration of 3 mg/kg, via oral gavage.
(§3) During the ten day study period, on an at least once-daily basis, each of the dogs was monitored for clinical observations, mortality, moribundity, body mass, acceptability/palatability, and food consumption. Serum samples were taken to measure capromorelin concentration, GH concentration, IGF-1 concentration, and cortisol concentration. Serum samples were taken on days 1, 2, 4, and 7 at −15 minutes (pre-dose), immediately prior to dosing (0 minutes) and 30, 45, 60, 90, 120, 240, 360, and/or 480 minutes post dosing. […]

The subject of a further data set is cortisol. As to the kind of experiment: Example 4: serum cortisol concentration. The format is in vivo, Beagle dogs. The note with it: approximately 0.5 h post treatment, days 1, 4 and 7. On the procedure:
as §1, §2, §3

Data set [1] can be described thus: Example 13: serum capromorelin and pharmacokinetics. The format is in vivo, cats with compromised kidney function. On the procedure: The following study was undertaken to assess multiple points. First, the following experiments were conducted to determine if a formulation of capromorelin, when administered either intravenously or subcutaneously, can stimulate appetite in cats with compromised kidney function. Second, the following experiments were conducted to assess the pharmacokinetic profile of capromorelin in the serum of cats with compromised kidney function. Finally, the following experiments were conducted to determine if capromorelin accumulates in the serum after 14 days of treatment that is subcutaneously administered. Sixteen cats with compromised kidney function were acclimatized for the following study. Animals assigned to Group 1 (n=6) received an intravenous administration of a capromorelin formulation (i.e., capromorelin in sterile water) at a dose of 0.75 mg/kg on Day 0 of the experiment. Animals assigned to Group 2 (n=6) received a subcutaneous administration of a capromorelin formulation (2.1% w/v capromorelin, 1% w/v benzyl alcohol, and citrate buffer) daily for 14 days at a dose of 2 mg/kg. Animals assigned to Group 3 (n=4) served as untreated controls. During the study, blood samples were taken from the Group 1 animals at time points 0 (pre-administration), 5 minutes, 10 minutes, 30 minutes, 1 h, 2 h, 4 h, 6 h, 8 h, and 12 h post administration on Day 0. Blood samples were taken from the Group 2 animals at time points 0 (pre-administration), 15 minutes, 30 minutes, 45 minutes, 1 h, 2 h, 4 h, 6 h, 8 h, and 12 h post administration on Day 0 and time points 0, 30 minutes, 1 h, 2 h, 4 h, and 8 h post administration on Day 13. In addition, body weights were collected on study days −7, −1, and 13 (for Groups 2 and 3 only). Diet consumption was also monitored on study days −7 until day 13 for the animals in Groups 2 and 3 only. Referring to FIGS. 116 and 118, the pharmacokinetics of subcutaneously administered capromorelin were also determined. […] In addition, the mean fraction of the dose absorbed was determined by dividing the mean area under the curve (AUC)/dose of the animals in Group 2, which was divided by AUC/dose of the animals in Group 1. In this case, the mean fraction of the dose (F) absorbed is 1.37.

A further data set concerns IGF-1. Kind of data set: Example 13: serum IGF-1. The note with it: 8 hours post administration; Group 1 IV Day 0, Group 2 SC Days 0 and 13. In kind it is in vivo, cats with compromised kidney function. The method, then:
The following study was undertaken to assess multiple points. First, the following experiments were conducted to determine if a formulation of capromorelin, when administered either intravenously or subcutaneously, can stimulate appetite in cats with compromised kidney function. Second, the following experiments were conducted to assess the pharmacokinetic profile of capromorelin in the serum of cats with compromised kidney function. Finally, the following experiments were conducted to determine if capromorelin accumulates in the serum after 14 days of treatment that is subcutaneously administered.
Sixteen cats with compromised kidney function were acclimatized for the following study. Animals assigned to Group 1 (n=6) received an intravenous administration of a capromorelin formulation (i.e., capromorelin in sterile water) at a dose of 0.75 mg/kg on Day 0 of the experiment. Animals assigned to Group 2 (n=6) received a subcutaneous administration of a capromorelin formulation (2.1% w/v capromorelin, 1% w/v benzyl alcohol, and citrate buffer) daily for 14 days at a dose of 2 mg/kg. Animals assigned to Group 3 (n=4) served as untreated controls. […] Diet consumption was also monitored on study days −7 until day 13 for the animals in Groups 2 and 3 only.

The mark [2] stands for this setting: Group 1, intravenous 0.75 mg/kg, Day 0.
The mark [3] stands for this setting: Group 2, subcutaneous 2 mg/kg daily, Day 13.
Where [4] appears, read: Group 2, subcutaneous 2 mg/kg, Day 0.

`CN1N=C2CCN(C(=O)[C@@H](COCc3ccccc3)NC(=O)C(C)(C)N)C[C@@]2(Cc2ccccc2)C1=O.O=C(O)C(O)C(O)C(=O)O` [capromorelin]: in the data set with GH, the “GH levels in the serum after dosing” value is recorded as “marked increase”. Further, the “cortisol concentrations in the serum relative to deionized water” value with cortisol is given as “increased”. In data set [1] (setting [2]), the “serum concentration of capromorelin at the spike” value is reported as “about 397 ng/mL” and the “time post-administration of initial spike of serum capromorelin” value is “about 5 minutes”. In data set [1] (Group 2, subcutaneous 2 mg/kg), the mean absorption time was found to be 0.4 h. For the same compound, the “accumulation in the serum after 14 days of treatment” value in data set [1] (Group 2, subcutaneous 2 mg/kg daily) is reported as “does not accumulate”. For the same compound, in data set [1] (setting [3]), the “serum concentration of capromorelin at the spike” value was “about 950 ng/mL” and the “time post administration of spike in serum capromorelin” value came to 30 min. In data set [1] (setting [4]), the “serum concentration of capromorelin at the spike” value is listed as “about 833 ng/mL” and the “time post-administration of initial spike of serum capromorelin” value is “about 15 minutes”. Besides, in data set [1] (cat, serum, sc, Group 2, subcutaneous 2 mg/kg, read-out: geometric Cmax), the Cmax stood at 893 ng/mL. Besides, the clearance in data set [1] (cat, serum, Group 1, intravenous 0.75 mg/kg, several of the test animals) came to 20 mL/min/kg. Moreover, the half-life in data set [1] (cat, serum, Group 1, intravenous 0.75 mg/kg, read-out: terminal half-life) lay in the range of 40.2 to 54 min. The “mean fraction of the dose (F) absorbed” value in data set [1] (subcutaneous AUC/dose (Group 2) divided by intravenous AUC/dose (Group 1)) was 1.37. Also, in the data set with IGF-1, the “serum concentration of IGF-1 as a result of treatment” value is given as “increased in serum concentration of IGF-1”.
